Where only a bound is given, the exact number is not on record here.

In test [1] the target is T1, 5-hydroxytryptamine receptor 1B (Homo sapiens, UniProt P28222). Put plainly: Inhibitory activity against human recombinant 5HT1B receptor co-expressed with G-protein chimera Gqo5 in HEK293 cells by FLIPR. In kind it is functional, cell-based.
Test [2] concerns the target T1, 5-hydroxytryptamine receptor 1B. Put plainly: Intrinsic activity for 5HT1B receptor in FLIPR assay. In kind it is functional.
Test [3] has as its target T2, 5-hydroxytryptamine receptor 1A (Homo sapiens) (UniProt P08908).
T2 sequence (whole entry): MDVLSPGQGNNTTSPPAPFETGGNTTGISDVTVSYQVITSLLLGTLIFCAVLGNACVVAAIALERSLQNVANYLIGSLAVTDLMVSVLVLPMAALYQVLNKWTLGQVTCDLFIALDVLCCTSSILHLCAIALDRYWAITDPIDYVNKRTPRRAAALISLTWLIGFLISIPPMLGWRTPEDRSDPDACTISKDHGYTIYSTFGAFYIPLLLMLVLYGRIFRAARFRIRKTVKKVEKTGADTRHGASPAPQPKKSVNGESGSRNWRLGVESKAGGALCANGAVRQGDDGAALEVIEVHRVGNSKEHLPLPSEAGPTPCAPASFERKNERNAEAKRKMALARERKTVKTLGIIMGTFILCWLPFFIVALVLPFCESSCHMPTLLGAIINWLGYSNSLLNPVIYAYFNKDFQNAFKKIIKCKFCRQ
Put plainly: Functional activity in [35S]GTP-gamma-S assay for 5HT1A receptor. For orientation: Binding of GTPγS marks nucleotide exchange on a G protein.

The target in test [4] is T3, Adrenergic receptor alpha-1 (Homo sapiens, UniProt P35348+P25100+P35368).
T3 sequence (P35348 whole entry): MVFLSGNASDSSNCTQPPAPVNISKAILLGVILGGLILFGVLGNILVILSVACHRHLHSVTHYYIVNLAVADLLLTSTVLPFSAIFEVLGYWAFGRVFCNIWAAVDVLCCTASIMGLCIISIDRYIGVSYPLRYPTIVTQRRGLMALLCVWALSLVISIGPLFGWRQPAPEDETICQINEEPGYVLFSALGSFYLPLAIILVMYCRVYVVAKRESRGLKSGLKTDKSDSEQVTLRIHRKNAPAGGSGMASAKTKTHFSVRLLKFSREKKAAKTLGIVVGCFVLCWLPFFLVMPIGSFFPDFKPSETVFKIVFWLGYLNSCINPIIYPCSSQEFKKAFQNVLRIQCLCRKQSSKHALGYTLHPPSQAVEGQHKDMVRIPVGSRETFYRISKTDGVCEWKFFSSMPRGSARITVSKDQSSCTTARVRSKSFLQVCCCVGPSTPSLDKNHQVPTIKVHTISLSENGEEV
T3 sequence (P25100 whole entry): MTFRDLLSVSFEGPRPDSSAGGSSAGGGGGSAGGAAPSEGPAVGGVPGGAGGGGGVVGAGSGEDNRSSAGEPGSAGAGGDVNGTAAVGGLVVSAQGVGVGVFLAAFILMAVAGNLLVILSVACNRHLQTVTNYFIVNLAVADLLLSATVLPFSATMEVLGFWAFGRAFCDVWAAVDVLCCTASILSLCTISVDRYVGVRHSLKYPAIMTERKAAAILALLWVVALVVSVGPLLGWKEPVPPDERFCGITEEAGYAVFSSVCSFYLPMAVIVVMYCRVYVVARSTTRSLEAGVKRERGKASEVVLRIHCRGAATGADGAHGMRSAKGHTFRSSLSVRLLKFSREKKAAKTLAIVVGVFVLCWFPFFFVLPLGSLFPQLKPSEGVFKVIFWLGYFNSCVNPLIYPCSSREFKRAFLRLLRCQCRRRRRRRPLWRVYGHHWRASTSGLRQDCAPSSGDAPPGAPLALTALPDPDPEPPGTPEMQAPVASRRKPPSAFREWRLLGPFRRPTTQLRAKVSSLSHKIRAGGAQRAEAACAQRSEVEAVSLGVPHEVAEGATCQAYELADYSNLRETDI
T3 sequence (P35368 whole entry): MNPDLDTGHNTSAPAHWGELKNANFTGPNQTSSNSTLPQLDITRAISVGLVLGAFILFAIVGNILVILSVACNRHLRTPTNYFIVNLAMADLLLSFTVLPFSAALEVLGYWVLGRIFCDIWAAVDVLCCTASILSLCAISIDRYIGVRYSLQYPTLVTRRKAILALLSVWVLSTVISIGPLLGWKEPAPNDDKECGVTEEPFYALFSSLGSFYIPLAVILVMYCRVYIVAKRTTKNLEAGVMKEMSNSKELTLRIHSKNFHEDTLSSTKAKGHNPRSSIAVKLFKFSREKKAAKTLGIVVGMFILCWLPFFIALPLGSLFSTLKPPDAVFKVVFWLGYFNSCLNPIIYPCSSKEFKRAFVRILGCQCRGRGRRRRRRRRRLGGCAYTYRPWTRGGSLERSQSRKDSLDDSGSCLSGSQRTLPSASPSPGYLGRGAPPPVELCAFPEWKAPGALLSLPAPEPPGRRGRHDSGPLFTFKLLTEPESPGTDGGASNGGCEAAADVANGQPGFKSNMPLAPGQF
In words: Inhibitory activity against Adrenergic alpha-1 receptor. In kind it is protein assay.

For test [5], the target named is T4, 5-hydroxytryptamine receptor 1A (Homo sapiens, UniProt P08908).
T4 sequence (P08908 whole entry): T2 sequence (whole entry)
In words: Displacement of [35S]GTP-gamma-S from human recombinant 5HT1A receptor. In kind it is functional. In general terms: Loss of bound radioactivity is the signal in a displacement assay; it reports binding, not function.

The target of test [6] is T2, 5-hydroxytryptamine receptor 1A (Homo sapiens). Put plainly: Intrinsic activity for 5HT1A receptor in [35S]GTP-gamma-S assay. In kind it is functional.
Test [7] addresses T1, 5-hydroxytryptamine receptor 1B. Put plainly: Functional activity in FLIPR assay for 5HT1B receptor.

T1 sequence (P28222 whole entry): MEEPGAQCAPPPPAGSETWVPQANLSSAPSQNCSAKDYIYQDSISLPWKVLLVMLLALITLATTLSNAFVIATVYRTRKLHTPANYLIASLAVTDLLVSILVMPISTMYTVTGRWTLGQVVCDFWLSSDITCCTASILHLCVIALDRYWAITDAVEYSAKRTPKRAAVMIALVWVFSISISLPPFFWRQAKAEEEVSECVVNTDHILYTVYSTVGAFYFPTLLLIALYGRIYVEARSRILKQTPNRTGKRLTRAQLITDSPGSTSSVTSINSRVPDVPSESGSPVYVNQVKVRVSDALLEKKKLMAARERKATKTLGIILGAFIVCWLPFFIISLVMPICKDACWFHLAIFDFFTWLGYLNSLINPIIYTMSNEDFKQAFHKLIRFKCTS

As to `CN1CCc2c(sc3ncn(CCN4CCN(c5ccccc5-c5ccccc5)CC4)c(=O)c23)C1`, the Ki stood at 1.1 nM in test [1], 1.1 nM in test [4] and 4.1 nM in test [5]. In addition, the Emax was under 20% in test [2] and 10% in test [6]. Moreover, the Activity result in test [3] (filed as partial agonist) was “Partial agonist”; in test [7] (filed as antagonist), “Antagonist”.

With `CC(C)Oc1ccccc1N1CCN(CCn2cnc3sc4c(c3c2=O)CCN(C)C4)CC1`, the Ki in test [1] turned out to be 2.5 nM; in test [4] it was 0.1 nM; in test [5], 0.7 nM. Besides, the Emax is under 20% in test [2] and 10% in test [6]. The Activity entry in test [3] (filed as partial agonist) is “Partial agonist”; in test [7] (filed as antagonist), “Antagonist”.

On to `COc1ccccc1N1CCN(CCn2cnc3sc4c(c3c2=O)CCN(C)C4)CC1`, for which the Ki is 1.4 nM in test [1], 0.4 nM in test [4] and 0.7 nM in test [5]. The figures for the Emax in test [2] and in test [6] were 20% and under 10%, respectively. For the same molecule, the Activity entry in test [3] (filed as antagonist) was “Antagonist”; in test [7] (filed as partial agonist) it was “Partial agonist”.

For the molecule `COc1ccc(Cl)cc1N1CCN(CCn2cnc3sc4c(c3c2=O)CCN(C)C4)CC1`, the Ki in test [1] was determined as 70.3 nM; in test [4], 0.1 nM; in test [5], 3 nM. Moreover, the figures for the Emax in test [2] and in test [6] were under 20% and under 10%, respectively. The Activity result in test [3] (filed as antagonist) and in test [7] (filed as antagonist) was “Antagonist” in each case.

With `CN1CCc2c(sc3ncn(CCN4CCN(c5ccccc5C#N)CC4)c(=O)c23)C1`, the Ki was 1.4 nM in test [1], 1.8 nM in test [4] and 2.5 nM in test [5]. Besides, the figures for the Emax in test [2] and in test [6] were over 80% and 10%, respectively. In addition, the values for the Activity entry in test [3] (filed as partial agonist) and in test [7] (filed as agonist) were “Partial agonist” and “Agonist”, respectively.

Take `CN1CCc2c(sc3ncn(CCN4CCN(c5ccccc5OCc5ccccc5)CC4)c(=O)c23)C1`: the Ki was determined as 1.2 nM in test [1], 4 nM in test [4] and 1.9 nM in test [5]. For the same molecule, the Emax in test [2] was 20%; in test [6], 10%. Besides, the Activity entry in test [3] (filed as partial agonist) and in test [7] (filed as partial agonist) was “Partial agonist” in each case.

Regarding `CN1CCc2c(sc3ncn(CCN4CCN(c5cccc6ccncc56)CC4)c(=O)c23)C1`, the Ki in test [1] was 0.1 nM; in test [4], 1.2 nM; in test [5] it was 0.3 nM. In addition, the Emax was determined as 20% in test [2] and 10% in test [6]. Further, the Activity result in test [3] (filed as partial agonist) and in test [7] (filed as partial agonist) was “Partial agonist” throughout.

On to `COc1ccc(OC)c(N2CCN(CCn3cnc4sc5c(c4c3=O)CCN(C)C5)CC2)c1`, for which the inhibition constant (Ki) was found to be 50.2 nM in test [1], 8.4 nM in test [4] and 24.2 nM in test [5]. Moreover, the maximum response (Emax) in test [2] is under 20%; in test [6] it was under 10%. Further, the Activity result in test [3] (filed as antagonist) and in test [7] (filed as antagonist) was “Antagonist” in each case.

As for `CN1CCc2c(sc3ncn(CCN4CCN(c5cccc6ccccc56)CC4)c(=O)c23)C1`, the figures for the Ki in test [1], in test [4] and in test [5] were 0.5 nM, 13.2 nM and 0.7 nM, respectively. The Emax amounted to 20% in test [2] and 10% in test [6]. Further, the Activity result in test [3] (filed as partial agonist) and in test [7] (filed as partial agonist) was “Partial agonist” each time.

For `COc1cc(Cl)ccc1N1CCN(CCn2cnc3sc4c(c3c2=O)CCN(C)C4)CC1`, the Ki in test [1] was determined as 3.3 nM; in test [4], 0.5 nM; in test [5], 18.8 nM. Also, the Emax was under 20% in test [2] and 10% in test [6]. Moreover, the figures for the Activity entry in test [3] (filed as partial agonist) and in test [7] (filed as antagonist) were “Partial agonist” and “Antagonist”, respectively.

Turning to `CN1CCc2c(sc3ncn(CCN4CCN(c5cccc6cccnc56)CC4)c(=O)c23)C1`, the Ki in test [1] was found to be 0.3 nM; in test [4] it was 1.2 nM; in test [5], 0.2 nM. Further, the maximum response (Emax) in test [2] was found to be 20%; in test [6], 10%. The Activity entry in test [3] (filed as partial agonist) and in test [7] (filed as partial agonist) was “Partial agonist” in each case.

For `COc1cc(Cl)c(Cl)cc1N1CCN(CCn2cnc3sc4c(c3c2=O)CCN(C)C4)CC1`, the Ki stood at 4.9 nM in test [1], 0.2 nM in test [4] and 2.5 nM in test [5]. Also, the Emax in test [2] is under 20%; in test [6], 10%. Further, the figures for the Activity entry in test [3] (filed as partial agonist) and in test [7] (filed as antagonist) were “Partial agonist” and “Antagonist”, respectively.

Consider `CN1CCc2c(sc3ncn(CCN4CCN(c5cccc6ncccc56)CC4)c(=O)c23)C1`, for which the Ki in test [1] stood at 1.7 nM; in test [4] it was 26.7 nM; in test [5] it was 1.5 nM. Besides, the figures for the Emax in test [2] and in test [6] were 20% and under 10%, respectively. Moreover, the Activity result in test [3] (filed as antagonist) was “Antagonist”; in test [7] (filed as partial agonist) it was “Partial agonist”.

With `COc1ccc2ccccc2c1N1CCN(CCn2cnc3sc4c(c3c2=O)CCN(C)C4)CC1`, the results for the Ki in test [1], in test [4] and in test [5] were 5.4 nM, 4.5 nM and 11.8 nM, respectively. The Emax in test [2] is 20%; in test [6] it was 10%. The Activity result in test [3] (filed as partial agonist) and in test [7] (filed as partial agonist) was “Partial agonist” throughout.

Turning to `Cc1ccccc1N1CCN(CCn2cnc3sc4c(c3c2=O)CCN(C)C4)CC1`, the Ki in test [1] stood at 3.5 nM; in test [4], 1.7 nM; in test [5], 2.9 nM. Besides, the Emax is 20% in test [2] and under 10% in test [6]. Besides, the values for the Activity entry in test [3] (filed as antagonist) and in test [7] (filed as partial agonist) were “Antagonist” and “Partial agonist”, respectively.

With `CN1CCc2c(sc3ncn(CCN4CCN(c5cccc6c5OCC6)CC4)c(=O)c23)C1`, the Ki worked out at 0.5 nM in test [1], 0.2 nM in test [4] and 0.6 nM in test [5]. The values for the Emax in test [2] and in test [6] were under 20% and 10%, respectively. The Activity result in test [3] (filed as partial agonist) is “Partial agonist”; in test [7] (filed as antagonist), “Antagonist”.

Turning to `COc1c(Cl)cc(Cl)cc1N1CCN(CCn2cnc3sc4c(c3c2=O)CCN(C)C4)CC1`, the Ki in test [1] was determined as 3.8 nM; in test [4], 14.8 nM; in test [5], 25.8 nM. The Emax in test [2] is 20%; in test [6] it was over 70%. Further, the Activity entry was “Agonist” in test [3] (filed as agonist) and “Partial agonist” in test [7] (filed as partial agonist).

For the molecule `CN1CCc2c(sc3ncn(CCN4CCN(c5ccccc5OCC(C)(C)C)CC4)c(=O)c23)C1`, the Ki in test [1] came to 5.4 nM; in test [4], 0.2 nM; in test [5] it was 2.5 nM. The Emax in test [2] is under 20%; in test [6], 10%. Besides, the results for the Activity entry in test [3] (filed as partial agonist) and in test [7] (filed as antagonist) were “Partial agonist” and “Antagonist”, respectively.

Usually Ki stands for a dissociation constant, usually derived from enzyme kinetics or from competition with a known ligand. The term Emax denotes the greatest response seen or fitted, relative to the assay's reference.

The values above are taken from ChEMBL document CHEMBL1141234, “Synthesis and SAR of highly potent dual 5-HT1A and 5-HT1B antagonists as potential antidepressant drugs” (Bioorg Med Chem Lett, 2005).
